# In patent US8552017B2, “2-amino-3-sulphonyl-tetrahydro-pyrazolo[1,5-A]pyrido-pyrimidine antagonists of serotonin 5-HT6 receptors, methods for the production and use thereof” (priority 2008, dated 2013):
# Structures can show the parent of a compound that is named as a salt.
# What was measured:
# 5-HT6 receptor [1] = biological target: T1, 5-HT6 receptor (Homo sapiens (Human), UniProt P50406); assay: Competitive radioligand binding ([3H] Lysergic acid diethylamide) to serotonin 5-HT6 receptors, HeLa cell membranes
# Procedure: Screening of the disclosed compounds for their potential ability to interact with serotonin 5-HT6 receptors was carried out by the method of radioligand binding. For this purpose membrane species were prepared from HeLa cells expressing recombinant human 5-HT6 receptors, by means of cells homogenization in glass homogenizer with subsequent separation of plasmatic membranes from cell nucli, mitochondria's and cell wreckages by differential centrifugation. Determination of tested compounds binding to 5-HT6 receptors was carried out according to the method described in [Monsma F J Jr, Shen Y, Ward R P, Hamblin M W and Sibley D R, Cloning and expression of a novel serotonin receptor with high affinity for tricyclic psychotropic drugs. Mol Pharmacol. 43:320-327, 1993]. […] Methiothepin was used as a positive control. Binding of the tested compounds with the receptor was determined by their ability to displace the radioligand and was expressed in percent of displacement. The percent of displacement was calculated according to the following equation:
# [formula] wherein: TA—was overall radioactivity in the presence of radioligand only, CA—was radioactivity in the presence of radioligand and tested compound and NA—was radioactivity in the presence of radioligand and Serotonin (5 μM).
# 5-HT6 receptor [2] = biological target: T1, 5-HT6 receptor; assay: Antagonistic activity test towards 5-HT6 receptors (serotonin-induced intracellular cAMP, LANCE cAMP kit, HEK 293 cells); assay type: cell-based; details: read-out: IC50 in the setting of functional assay
# Procedure: Antagonistic activity test of compounds of the general formulas 1 and 2 towards 5-HT6 receptors. Compounds of general formulas 1 and 2 were tested for their ability to prevent 5-HT6 receptors activation by serotonin. HEK 293 cells (kidney cells of human's embryo) with artificially expressed 5-HT6 receptor, activation of which by serotonin leads to increasing the concentration of intracellular cAMP were used. Intracellular cAMP content was determined using reagent kit LANCE cAMP (PerkinElmer) according to the method described by the manufacturer of the kit [http://las.perkinelmer.com/content/Manuals]. Effectiveness of compounds was estimated by their ability to reduce the content of intracellular cAMP induced by serotonin.
# T1 sequence (P50406 whole entry): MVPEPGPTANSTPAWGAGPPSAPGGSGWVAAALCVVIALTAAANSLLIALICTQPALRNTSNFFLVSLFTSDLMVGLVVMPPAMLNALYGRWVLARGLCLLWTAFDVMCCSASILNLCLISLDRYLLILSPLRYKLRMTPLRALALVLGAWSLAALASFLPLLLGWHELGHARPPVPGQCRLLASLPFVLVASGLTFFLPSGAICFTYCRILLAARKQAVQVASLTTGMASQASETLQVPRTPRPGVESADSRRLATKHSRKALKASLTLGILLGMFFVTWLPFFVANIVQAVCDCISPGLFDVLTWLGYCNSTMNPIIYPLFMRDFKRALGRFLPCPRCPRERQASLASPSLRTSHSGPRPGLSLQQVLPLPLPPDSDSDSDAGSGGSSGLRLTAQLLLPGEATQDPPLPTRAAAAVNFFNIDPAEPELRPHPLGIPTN
IC50 (5-HT6 receptor [1]; 1.5 nM [3H] Lysergic acid diethylamide),Ki (5-HT6 receptor [1]; Ki=IC50/(1+[L]/KD)),IC50 (5-HT6 receptor [2]),Structure (SMILES)
1.48 nM,0.685 nM,,CNc1nn2c3c(c(C)nc2c1S(=O)(=O)c1ccccc1)CN(C)CC3 [1.1(4)•HCl]
,,29.7 nM,"CNc1nn2c3c(cnc2c1S(=O)(=O)c1ccccc1)CN(C)CC3 [1.1(3), 2-methylamino-7-methyl-3-phenylsulfonyl-6,7,8,9-tetrahydropyrazolo[1,5-a]pyrido[4,3-e]pyrimidine]"
